Data as given in patent US10556943B2, “HLA-DR binding peptides and their uses” (priority 2007, dated 2020).
Ends that are not written are not given here.

What was measured:
purified HLA DRB1*0404 = target: T1, purified HLA DRB1*0404 (Homo sapiens, UniProt P01903+P01911, A100R/A169T/F76Y/I96L/K127E/L162R/M171V/N62H/P40V/Q125Y/R42H/S133A/S149N/S66Y/V209L/W38E); experiment: HLA-DR radioligand binding inhibition assay, DRB1*0404; details: read-out: IC50 to purified HLA DRB1*0404; purified HLA DRB1*0404
T1 construct: MHC molecules utilized were purified from EBV transformed homozygous cell lines or single MHC allele transfected 721.221, C1R, or fibroblast lines; made in house; host or cells: EBV transformed homozygous cell lines or single MHC allele transfected 721.221, C1R, or fibroblast lines
Experimental: (§1) Fifteen distinct HLA-DR molecules were used in quantitative assays to measure the binding of peptides to solubilized HLA-DR molecules. […] Briefly, columns of inactivated Sepharose CL4B and Protein A Sepharose were used as pre-columns. HLA-DR molecules were captured by passage of lysates over LB3.1 monoclonal antibody (anti-HLA-DRA) columns. Antibody columns were washed with 10 mM Tris-HCL, pH8.0 with 1% (v/v) NP-40, followed by PBS containing 0.4% (w/v) n-octylglucoside. […] The pH was reduced to 8.0 and the eluates were concentrated by centrifugation in Centriprep 30 concentrators at 2000 rpm (Amicon, Beverly, Mass.).
(§2) Briefly, 1-10 nM of radiolabeled peptide was co-incubated for 2 days at either room temperature or 37° C. with 1 μM to 1 nM purified HLA-DR molecules in the presence of a cocktail of protease inhibitors. Assays were performed at various pH conditions, ranging from pH 4 to pH 7. […] After incubation, the percentage of HLA-DR-bound radioactivity is determined by capturing HLA-DR/peptide complexes on Optiplates (Packard Instruments, Meriden, Conn.) coated with the LB3.1 antibody and determining bound counts per minute using the TopCount microscintillation counter (Packard Instruments). […] Competitor peptides are tested in 2-4 complete, independent experiments, at concentrations ranging from 30 μg/mL to 300 pg/mL.

purified HLA DRB1*0405 = target: T2, purified HLA DRB1*0405 (Homo sapiens, UniProt P01903+P01911, A100R/A169T/D86S/F76Y/I96L/K127E/L162R/M171V/N62H/P40V/Q125Y/R42H/S133A/S149N/S66Y/V115G/V209L/W38E); experiment: HLA-DR radioligand binding inhibition assay, DRB1*0405; details: read-out: IC50 to purified HLA DRB1*0405; purified HLA DRB1*0405
T2 construct: MHC molecules utilized were purified from EBV transformed homozygous cell lines or single MHC allele transfected 721.221, C1R, or fibroblast lines; made in house; host or cells: EBV transformed homozygous cell lines or single MHC allele transfected 721.221, C1R, or fibroblast lines
Experimental: as §1, §2

purified HLA DRB1*0701 = target: T3, purified HLA DRB1*0701 (Homo sapiens, UniProt P01903+P01911, A100R/A102G/A103Q/D57E/D86V/E43K/F76Y/K127E/L162R/M171V/P40G/Q125H/Q99D/R33Q/R42Y/R54Q/S133A/S66F/T210M/V115G/Y107V/Y59L/Y89S); experiment: HLA-DR radioligand binding inhibition assay, DRB1*0701
T3 construct: MHC molecules utilized were purified from EBV transformed homozygous cell lines or single MHC allele transfected 721.221, C1R, or fibroblast lines; made in house; host or cells: EBV transformed homozygous cell lines or single MHC allele transfected 721.221, C1R, or fibroblast lines
Experimental: (§3) Fifteen distinct HLA-DR molecules were used in quantitative assays to measure the binding of peptides to solubilized HLA-DR molecules. […] Briefly, columns of inactivated Sepharose CL4B and Protein A Sepharose were used as pre-columns. HLA-DR molecules were captured by passage of lysates over LB3.1 monoclonal antibody (anti-HLA-DRA) columns. Antibody columns were washed with 10 mM Tris-HCL, pH8.0 with 1% (v/v) NP-40, followed by PBS containing 0.4% (w/v) n-octylglucoside.
(§4) Briefly, 1-10 nM of radiolabeled peptide was co-incubated for 2 days at either room temperature or 37° C. with 1 μM to 1 nM purified HLA-DR molecules in the presence of a cocktail of protease inhibitors. Assays were performed at various pH conditions, ranging from pH 4 to pH 7. […] After incubation, the percentage of HLA-DR-bound radioactivity is determined by capturing HLA-DR/peptide complexes on Optiplates (Packard Instruments, Meriden, Conn.) coated with the LB3.1 antibody and determining bound counts per minute using the TopCount microscintillation counter (Packard Instruments).

purified HLA DRB1*1302 = target: T4, purified HLA DRB1*1302 (Homo sapiens, UniProt P01903+P01911, A100E/A169T/K41T/L162R/M171V/P40S/Q125H/Q178H/Q39Y/Q99D/R42S/S66N/T262R/V115G/W38E/Y61H); experiment: HLA-DR radioligand binding inhibition assay, DRB1*1302; details: column 6 of second part of Table I
T4 construct: MHC molecules utilized were purified from EBV transformed homozygous cell lines or single MHC allele transfected 721.221, C1R, or fibroblast lines; made in house; host or cells: EBV transformed homozygous cell lines or single MHC allele transfected 721.221, C1R, or fibroblast lines
T4 sequence (P01903 26-254, other chains not shown): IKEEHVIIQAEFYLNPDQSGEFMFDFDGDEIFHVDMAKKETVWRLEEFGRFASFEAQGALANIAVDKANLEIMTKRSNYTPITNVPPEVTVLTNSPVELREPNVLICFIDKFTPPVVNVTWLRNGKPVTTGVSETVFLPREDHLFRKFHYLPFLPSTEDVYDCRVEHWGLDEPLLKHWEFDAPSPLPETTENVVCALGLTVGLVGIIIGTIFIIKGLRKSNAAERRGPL
Experimental: as §3, §4

purified HLA DRB5*0101 = target: T5, purified HLA DRB5*0101 (Homo sapiens, UniProt P01903+Q30154); experiment: HLA-DR radioligand binding inhibition assay, DRB5*0101
T5 construct: MHC molecules utilized were purified from EBV transformed homozygous cell lines or single MHC allele transfected 721.221, C1R, or fibroblast lines; made in house; host or cells: EBV transformed homozygous cell lines or single MHC allele transfected 721.221, C1R, or fibroblast lines
Experimental: as §1, §2

purified HLA DRB3*0101 = target: T6, purified HLA DRB3*0101 (Homo sapiens, UniProt P01903+P79483); experiment: HLA-DR radioligand binding inhibition assay, DRB3*0101
T6 construct: MHC molecules utilized were purified from EBV transformed homozygous cell lines or single MHC allele transfected 721.221, C1R, or fibroblast lines; made in house; host or cells: EBV transformed homozygous cell lines or single MHC allele transfected 721.221, C1R, or fibroblast lines
Experimental: as §1, §2

purified HLA DRB1*0401 = target: T7, purified HLA DRB1*0401 (Homo sapiens, UniProt P01903+P01911, A100K/A169T/F76Y/I96L/K127E/L162R/M171V/N62H/P40V/Q125Y/R42H/S133A/S149N/S66Y/V115G/V209L/W38E); experiment: HLA-DR radioligand binding inhibition assay, DRB1*0401; details: read-out: IC50 to purified HLA DRB1*0401; purified HLA DRB1*0401
T7 construct: MHC molecules utilized were purified from EBV transformed homozygous cell lines or single MHC allele transfected 721.221, C1R, or fibroblast lines; made in house; host or cells: EBV transformed homozygous cell lines or single MHC allele transfected 721.221, C1R, or fibroblast lines
Experimental: as §1, §2

For `CSCC[C@H](NC(=O)[C@H](CCCNC(=N)N)NC(=O)[C@H](C)NC(=O)CN)C(=O)N1CCC[C@H]1C(=O)N[C@@H](CS)C(=O)N[C@@H](C)C(=O)N[C@@H](CCC(=O)O)C(=O)N[C@@H](CC(C)C)C(=O)N[C@H](C(=O)N[C@@H](CCCNC(=N)N)C(=O)N[C@@H](CCC(=O)O)C(=O)N1CCC[C@H]1C(=O)NCC(=O)N[C@@H](CS)C(=O)O)C(C)C` [Peptide 9019.0181], the IC50 (purified HLA DRB1*0404) was 13.1 µM and the IC50 (purified HLA DRB1*0405) was greater than 20 µM.
KELAVFREKVTEQHR [Peptide 9019.0186] gave an IC50 (purified HLA DRB1*0701) greater than 20 µM and an IC50 (purified HLA DRB1*1302) greater than 20 µM.
`CC(C)C[C@H](NC(=O)[C@@H]1CCCN1C(=O)[C@H](CO)NC(=O)[C@@H]1CCCN1C(=O)[C@H](CC(=O)O)NC(=O)[C@H](Cc1c[nH]cn1)NC(=O)[C@@H](NC(=O)[C@@H]1CCCN1C(=O)[C@H](CC(C)C)NC(=O)[C@H](CO)NC(=O)[C@H](CCC(N)=O)NC(=O)[C@H](CC(C)C)NC(=O)CNC(=O)[C@H](CCCCN)NC(=O)[C@H](C)N)[C@@H](C)O)C(=O)O` [Peptide 9019.0098] showed an IC50 (purified HLA DRB5*0101) greater than 20 µM.
In the case of `CSCC[C@H](NC(=O)[C@H](CCCNC(=N)N)NC(=O)[C@H](CO)NC(=O)[C@H](Cc1ccccc1)NC(=O)[C@H](CCC(=O)O)NC(=O)[C@H](CO)NC(=O)[C@@H](NC(=O)[C@H](CC(C)C)NC(=O)[C@H](CCC(=O)O)NC(=O)[C@H](CCCNC(=N)N)NC(=O)[C@H](Cc1ccccc1)NC(=O)[C@H](CCCNC(=N)N)NC(=O)[C@@H]1CCCN1C(=O)[C@@H](N)CCCNC(=N)N)C(C)C)C(=O)N[C@@H](C)C(=O)O` [Peptide 9019.0095], the IC50 (purified HLA DRB3*0101) is reported as greater than 20 µM.
For `CC(C)C[C@H](NC(=O)[C@@H](NC(=O)[C@H](CS)NC(=O)[C@H](CO)NC(=O)CNC(=O)[C@@H](NC(=O)[C@H](CC(=O)O)NC(=O)[C@@H](NC(=O)[C@@H](N)CO)[C@@H](C)O)C(C)C)[C@@H](C)O)C(=O)N[C@H](C(=O)N[C@@H](CS)C(=O)N1CCC[C@H]1C(=O)N[C@@H](CC(C)C)C(=O)N[C@@H](Cc1c[nH]cn1)C(=O)N[C@@H](CC(N)=O)C(=O)O)C(C)C` [Peptide 9019.0043], the IC50 (purified HLA DRB1*0401) was greater than 20 µM.
Compound `CC[C@H](C)[C@H](NC(=O)[C@@H](NC(=O)[C@H](Cc1ccc(O)cc1)NC(=O)CN)C(C)C)C(=O)NCC(=O)N[C@H](C(=O)N[C@@H](CCC(N)=O)C(=O)N[C@@H](CCC(N)=O)C(=O)N[C@@H](C)C(=O)N[C@H](C(=O)N1CCC[C@H]1C(=O)NCC(=O)N1CCC[C@H]1C(=O)N[C@@H](C)C(=O)N[C@@H](Cc1ccc(O)cc1)C(=O)O)[C@@H](C)O)[C@@H](C)O` [Peptide 9019.0110] has an IC50 (purified HLA DRB5*0101) of 10.2 µM.
